# According to patent US20210163471A1, “PROGRANULIN MODULATORS AND METHODS OF USING THE SAME” (ARKUDA THERAPEUTICS, priority 2017, published 2021):
# Like-named read-outs stand apart in the source and are kept apart here.
# Tested on: BV-2 (mouse microglia) cells
# Experiment: progranulin secretion from BV-2 cells, mouse progranulin ELISA of conditioned media
# Format: cell-based
# Details: BV-2 cells, 16 hours incubation, 8-point curves starting at 10 μM
# Description: BV-2 cells are split the day before plating into a 96 well plate format at approximately 80%. Cells should be plated the day before and allowed for 1 hour attachment period and for 16 hour incubation. […] Standard ELISA kits to measure PGRN are available from vendors such as Adipogen, R&D, and Biovendor.
# Compound potency was determined by measuring progranulin secretion from BV-2 (mouse microglia) cells. BV-2 cells were grown in RPMI with 2 mM L-glutamine supplemented with 10% fetal bovine serum. On the day of the assay, cells were plated in 96-well plates at a density of 30,000 cells/well in RPMI (Roswell Park Memorial Institute media)/L-glutamine supplemented with 2% Fetal clone serum II (plating media) and left to adhere for 1 hour. Following attachment to the plate, media was replaced with treatment (8-point curves in half-log dilutions starting at 10 μM) in plating media and incubated for 16 hours. Secreted progranulin was measured from a 1:10 dilution of the conditioned media using the R&D Systems mouse progranulin ELISA kit (cat #DY2557) and following the manufacturer's instructions.
# [1] = Mus musculus, assay run v1, read-out: PRGN v1 (EC50, progranulin secretion)
# [2] = assay run v1, read-out: PRGN v1 (EC50, progranulin secretion)
# [3] = Mus musculus, assay run v2 (same protocol, different assay), read-out: PRGN v2 (EC50, progranulin secretion)
# [4] = assay run v2 (same protocol, different assay), read-out: PRGN v2 (EC50, progranulin secretion)
# [5] = Mus musculus, BV-2, 16 h, assay run v1, read-out: PRGN v1 (EC50, progranulin secretion)
Compound,EC50 [1],EC50 [2],EC50 [3],EC50 [4],also measured
"CS(=O)(=O)c1ccc([C@H]2c3ccccc3CCN2C(=O)O[C@@H]2CN3CCC2CC3)cc1 [Compound 1001, (S)—((S)-quinuclidin-3-yl)-1-(4-(methylsulfonyl)phenyl)-3,4-dihydroisoquinoline-2(1H)-carboxylate]",> 10 µM,,,,
O=C(O[C@@H]1CN2CCC1CC2)N1CCc2ccccc2[C@@H]1c1ccnc(O)c1 [Compound 1002],,> 10 µM,,,
O=C(O[C@@H]1CN2CCC1CC2)N1CCc2ccccc2[C@H]1c1ccnc(O)c1 [Compound 1003],,> 10 µM,,,
"O=C(O[C@@H]1CN2CCC1CC2)N1CCc2ccccc2[C@@H]1c1ccc(F)cc1 [Compound 1004, (S)—((S)-quinuclidin-3-yl) 1-(4-fluorophenyl)-3,4-dihydroisoquinoline-2(1H)-carboxylate]",0.36 µM,,0.43 µM,,
O=C(O[C@@H]1CN2CCC1CC2)N1CCc2ccccc2[C@H]1c1ccc(F)cc1 [Compound 1005],> 7 µM,,,,
O=C(O[C@@H]1CN2CCC1CC2)N1CCc2ccccc2[C@@H]1c1ccc(-n2ccnc2)cc1 [Compound 1006],5.7 µM,,,,
O=C(O[C@@H]1CN2CCC1CC2)N1CCc2ccccc2[C@H]1c1ccc(-n2ccnc2)cc1 [Compound 1007],> 10 µM,,,,
COc1cc([C@H]2c3ccccc3CCN2C(=O)O[C@@H]2CN3CCC2CC3)ccn1 [Compound 1008],,> 10 µM,,,
COc1cc([C@@H]2c3ccccc3CCN2C(=O)O[C@@H]2CN3CCC2CC3)ccn1 [Compound 1009],,> 10 µM,,,
O=C(O[C@@H]1CN2CCC1CC2)N1CCc2ccccc2[C@@H]1c1ccc(F)c(F)c1 [Compound 1010],0.92 µM,,2.03 µM,,
O=C(O[C@@H]1CN2CCC1CC2)N1CCc2ccccc2[C@H]1c1ccc(F)c(F)c1 [Compound 1011],7.14 µM,,8.74 µM,,
O=C(O[C@@H]1CN2CCC1CC2)N1CCc2ccccc2[C@@H]1c1ccc(F)cc1F [Compound 1012],,0.44 µM,,0.25 µM,
O=C(O[C@@H]1CN2CCC1CC2)N1CCc2ccccc2[C@H]1c1ccc(F)cc1F [Compound 1013],,> 10 µM,,1.75 µM,
O=C(O[C@@H]1CN2CCC1CC2)N1CCc2ccccc2[C@H]1c1cccc(F)c1F [Compound 1014],,> 10 µM,,4.3 µM,
O=C(O[C@@H]1CN2CCC1CC2)N1CCc2ccccc2[C@@H]1c1cccc(F)c1F [Compound 1015],,0.33 µM,,1.11 µM,
O=C1CCCN1c1ccc([C@H]2c3ccccc3CCN2C(=O)O[C@@H]2CN3CCC2CC3)cc1 [Compound 1016],> 10 µM,,> 10 µM,,
O=C1CCCN1c1ccc([C@@H]2c3ccccc3CCN2C(=O)O[C@@H]2CN3CCC2CC3)cc1 [Compound 1017],> 10 µM,,> 10 µM,,
O=C(O[C@@H]1CN2CCC1CC2)N1CCc2ccccc2[C@@H]1c1ccc(-n2cncn2)cc1 [Compound 1018],> 10 µM,,> 10 µM,,
O=C(O[C@@H]1CN2CCC1CC2)N1CCc2ccccc2[C@H]1c1ccc(-n2cncn2)cc1 [Compound 1019],> 10 µM,,> 10 µM,,
O=C(O[C@@H]1CN2CCC1CC2)N1CCc2ccccc2[C@@H]1c1cccc(F)c1 [Compound 1020],,1.37 µM,,3.55 µM,
O=C(O[C@@H]1CN2CCC1CC2)N1CCc2ccccc2[C@H]1c1cccc(F)c1 [Compound 1021],,> 10 µM,,1.03 µM,
O=C(O[C@@H]1CN2CCC1CC2)N1CCc2ccccc2[C@@H]1c1ccc(OC2CC2)cc1 [Compound 1022],> 10 µM,,> 10 µM,,
O=C(O[C@@H]1CN2CCC1CC2)N1CCc2ccccc2[C@H]1c1ccc(OC2CC2)cc1 [Compound 1023],9.53 µM,,6.33 µM,,
COc1ccc([C@H]2c3ccccc3CCN2C(=O)O[C@@H]2CN3CCC2CC3)cc1 [Compound 1024],,2.87 µM,,2.91 µM,

Compound,EC50 [1],EC50 [2],EC50 [3],EC50 [4],also measured
COc1ccc([C@@H]2c3ccccc3CCN2C(=O)O[C@@H]2CN3CCC2CC3)cc1 [Compound 1025],,4.41 µM,,> 10 µM,
O=C1CCC([C@H]2c3ccccc3CCN2C(=O)O[C@@H]2CN3CCC2CC3)CN1 (some centres unmarked) [Compound 1026],,> 10 µM,,> 10 µM,
O=C1CCC([C@@H]2c3ccccc3CCN2C(=O)O[C@@H]2CN3CCC2CC3)CN1 (some centres unmarked) [Compound 1027],,9.53 µM,,> 10 µM,
COc1ccc([C@H]2c3ccccc3CCN2C(=O)O[C@@H]2CN3CCC2CC3)cn1 [Compound 1028],,> 10 µM,,> 10 µM,
COc1ccc([C@@H]2c3ccccc3CCN2C(=O)O[C@@H]2CN3CCC2CC3)cn1 [Compound 1029],,> 10 µM,,> 10 µM,
O=C(O[C@@H]1CN2CCC1CC2)N1CCc2ccccc2[C@@H]1CS(=O)(=O)c1ccccc1 [Compound 1030],> 10 µM,,> 10 µM,,
O=C(O[C@@H]1CN2CCC1CC2)N1CCc2ccccc2[C@H]1CS(=O)(=O)c1ccccc1 [Compound 1031],> 10 µM,,> 10 µM,,
O=C(O[C@@H]1CN2CCC1CC2)N1CCc2ccccc2[C@@H]1c1ccc2ncsc2c1 [Compound 1032],,> 10 µM,,7.88 µM,
O=C(O[C@@H]1CN2CCC1CC2)N1CCc2ccccc2[C@H]1c1ccc2ncsc2c1 [Compound 1033],,> 10 µM,,> 10 µM,
O=C(O[C@@H]1CN2CCC1CC2)N1CCc2ccccc2[C@@H]1c1ccc2scnc2c1 [Compound 1034],,> 10 µM,,5.77 µM,
O=C(O[C@@H]1CN2CCC1CC2)N1CCc2ccccc2[C@H]1c1ccc2scnc2c1 [Compound 1035],,> 10 µM,,> 10 µM,
O=C(O[C@@H]1CN2CCC1CC2)N1CCc2ccccc2[C@@H]1c1cc2ccccc2s1 [Compound 1036],,> 3.16 µM,,> 10 µM,
O=C(O[C@@H]1CN2CCC1CC2)N1CCc2ccccc2[C@H]1c1cc2ccccc2s1 [Compound 1037],,> 3.16 µM,,> 10 µM,
COc1ccc([C@H]2c3ccccc3CCN2C(=O)O[C@@H]2CN3CCC2CC3)cc1F [Compound 1038],,,,> 10 µM,
COc1ccc([C@@H]2c3ccccc3CCN2C(=O)O[C@@H]2CN3CCC2CC3)cc1F [Compound 1039],,,,> 10 µM,
O=C(O[C@@H]1CN2CCC1CC2)N1CCc2ccccc2[C@@H]1c1cc(F)cc(F)c1 [Compound 1040],,,,> 10 µM,
O=C(O[C@@H]1CN2CCC1CC2)N1CCc2ccccc2[C@H]1c1cc(F)cc(F)c1 [Compound 1041],,,,> 10 µM,
O=C(O[C@@H]1CN2CCC1CC2)N1CCc2ccccc2[C@@H]1c1ccc(-n2cnnc2)cc1 [Compound 1042],,,> 10 µM,,
O=C(O[C@@H]1CN2CCC1CC2)N1CCc2ccccc2[C@H]1c1ccc(-n2cnnc2)cc1 [Compound 1043],,,> 10 µM,,
O=C(O[C@@H]1CN2CCC1CC2)N1Cc2ccccc2[C@@H]1c1ccccc1 [Compound 1044],,,> 10 µM,,
O=C(O[C@@H]1CN2CCC1CC2)N1Cc2ccccc2[C@H]1c1ccccc1 [Compound 1045],,,> 10 µM,,
O=C(O[C@@H]1CN2CCC1CC2)N1CCc2ccccc2[C@@H]1c1ccc(Cl)cc1 [Compound 1046],0.34 µM,,,,
O=C(N[C@@H]1CN2CCC1CC2)N1CCc2ccccc2[C@@H]1c1ccccc1 [Compound 1047],,,,,EC50 [5]: 0.7 µM
O=C(C[C@@H]1CN2CCC1CC2)N1CCc2ccccc2[C@@H]1c1ccccc1 [Compound 1048],,,,,EC50 [5]: 0.88 µM
